ChEMBL document CHEMBL1158300, “New Cephalotaxus Alkaloids from Cephalotaxus harringtonia var. drupacea” (J Nat Prod, 1996)
Converted amounts (≈) assume the structure as drawn.

Tested on: P388
Test: Cytotoxicity against mouse P388 cells
Assay type: functional, cell-based

COC(=O)C[C@](O)(CCCCC(C)C)C(=O)O[C@@H]1C(OC)=C[C@]23CCCN2CCc2cc4c(cc2[C@H]13)OCO4 [BISHOMODEOXYHARRINGTONINE]
IC50: 0.024 µg/mL (≈ 0.0441 µM)

COC(=O)C[C@](O)(CCCC(C)C)C(=O)O[C@@H]1C(OC)=C[C@]23CCCN2CCc2cc4c(cc2[C@H]13)OCO4 [HOMODEOXYHARRINGTONINE]
IC50: 0.056 µg/mL (≈ 0.106 µM)

COC(=O)C[C@](O)(CC(C)C)C(=O)O[C@@H]1C(OC)=C[C@]23CCCN2CCc2cc4c(cc2[C@H]13)OCO4 [NORDEOXYHARRINGTONINE]
IC50: 0.027 µg/mL (≈ 0.0538 µM)
